Molecular target: T1, Fuc-TVI (Homo sapiens, UniProt P51993)
T1 construct: a 1.2 kb fragment containing the entire open reading frame was generated by the polymerase chain reaction; expressed in transfected cells; host or cells: COS-1 cells, transient transfection, 1% Triton X-100 extract
T1 sequence (P51993 1-359): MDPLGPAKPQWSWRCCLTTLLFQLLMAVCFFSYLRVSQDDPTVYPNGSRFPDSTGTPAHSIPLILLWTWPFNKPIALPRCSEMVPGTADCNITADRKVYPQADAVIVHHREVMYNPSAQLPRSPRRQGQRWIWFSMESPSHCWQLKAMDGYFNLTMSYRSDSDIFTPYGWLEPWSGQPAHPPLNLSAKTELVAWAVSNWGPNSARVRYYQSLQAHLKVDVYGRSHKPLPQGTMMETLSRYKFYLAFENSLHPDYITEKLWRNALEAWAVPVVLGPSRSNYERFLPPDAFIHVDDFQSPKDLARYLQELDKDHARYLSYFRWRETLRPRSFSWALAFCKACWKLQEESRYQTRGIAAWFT
Test: Fucosyltransferase assay, extracts of COS-1 cells transfected with pCDNA1-Fuc-TVI
Assay type: biochemical
Settings: for utilization as acceptor substrate by Fuc-TVI (in words): extracts of COS-1 cells transfected with pCDNA1-Fuc-TVI; for Relative Activity (%) with Fuc-TVI: relative product formation rate, N-acetyllactosamine = 100, acceptor 20 mM (2-fucosyllactose 5 mM), GDP-[14C]fucose 3 μM, transfected COS-1 cell extract
Protocol: Cell extracts containing 1% Triton X-100 were prepared from transfected COS-1 cells, using procedures described previously (Kukowska-Latallo et al, Genes Devel., 4:1288-1303, 1990). Fucosyltransferase assays were performed in a total volume of 20 μl, and contained 50 mM sodium cacodylate, pH 6.2, 5 mM ATP, 10 mM fucose, 20 mM MnCl2, 3 μM GDP-^14C-fucose, and 5 μl (30 μg protein) of cell extract. Acceptor substrates were added to a final concentration of 20 mM. Reactions were incubated at 37° C. for 1 hour and terminated by addition of 20 μl ethanol, followed by addition of 600 μl of distilled water. An aliquot of each reaction (50 μl) was subjected to scintillation counting to determine total radioactivity in the reaction. Another aliquot (200 μl) was applied to a column containing 400 μl of Dowex 1X2-400, formate form (Rajan et al, J. Biol. Chem., 264:11158-11167, 1989). The flow through fraction, and […] of a subsequent water elution, were collected and pooled, and an aliquot was subjected to scintillation counting to quantitate incorporation of radioactive fucose into neutral product.
Table 2 presents the relative product formation rates obtained with low molecular weight acceptor substrates using cell extracts containing recombinant human α(1,3)fucosyltransferases expressed in transfected COS-1 cells, as described in the preceding sections. Fucosyltransferase assays were performed as described in detail in Lowe et al, J. Biol. Chem., (1991), 266:17467-17477; Weston et al, J. Biol. Chem. (1992), 267:4152-4160; and Kukowska-Latallo et al, Genes. Devel., (1990), 4:1288-1303. For each enzyme, the same extract was used, with saturating amounts of each acceptor oligosaccharide (20 mM, except for 2′-fucosylactose which was used at 5 mM), and GDP-^14C]fucose was present at 3 μM. Reaction times and enzyme amounts were adjusted to ensure a linear rate of product formation (less than 15% of the GDP-fucose substrate consumed). Products were separated by column chromatography and quantitated by liquid scintillation counting, and their structures were confirmed by high performance liquid chromatography, as described in Lowe et al, J. Biol. Chem., (1991), 266:17467-17477; Weston et al, J. Biol. Chem. (1992), 267:4152-4160; and Kukowska-Latallo et al, Genes. Devel., (1990), 4:1288-1303.

CC(=O)N[C@@H]1[C@@H](O[C@@H]2O[C@H](CO)[C@H](O)[C@H](O)[C@H]2O)[C@H](O)[C@@H](CO)O[C@@H]1O [lacto-N-biose I]
utilization as acceptor substrate by Fuc-TVI (in words): not utilized | Relative Activity (%) with Fuc-TVI: <1%

Fucα(1,2)Galβ(1,4)Glc [2-fucosyllactose]
utilization as acceptor substrate by Fuc-TVI (in words): did not function as acceptor substrates | Relative Activity (%) with Fuc-TVI: <1%

CC(=O)NC1C(O)OC(CO)C(OC2OC(CO)C(O)C(OC3(C(=O)O)CC(O)C(NC(C)=O)C(C(O)C(O)CO)O3)C2O)C1O (stereo not drawn) [α(2,3)sialyllactosamine, NeuAcα(2→3)Galβ(1→4)GlcNAc]
utilization as acceptor substrate by Fuc-TVI (in words): efficiently utilized | Relative Activity (%) with Fuc-TVI: 110%

OC[C@H]1O[C@@H](O[C@H]2[C@H](O)[C@@H](O)C(O)O[C@@H]2CO)[C@H](O)[C@@H](O)[C@H]1O (stereo partly shown) [lactose]
utilization as acceptor substrate by Fuc-TVI (in words): did not function as acceptor substrates | Relative Activity (%) with Fuc-TVI: <1%

CC(=O)N[C@H]1C(O)O[C@H](CO)[C@@H](O[C@@H]2O[C@H](CO)[C@H](O)[C@H](O)[C@H]2O)[C@@H]1O (stereo partly shown) [N-acetyllactosamine]
utilization as acceptor substrate by Fuc-TVI (in words): utilized | Relative Activity (%) with Fuc-TVI: 100%

Source: patent US20020102688A1, “Methods and products for the synthesis of oligosaccharide structures on glycoproteins, glycolipids, or as free molecules, and for the isolation of cloned genetic sequences that determine these structures” (The Regents of the University of Michigan, priority 1990, published 2002)
